This passage reports IC50 results from patent US12065438B2, “Substituted tricyclic compounds as indoleamine 2,3-dioxygenase inhibitors” (Merck Sharp & Dohme LLC, priority 2019, dated 2024).

Experiment [1] has as its target T1, IDO1 (Homo sapiens, UniProt P14902). The experiment in a line: IDO1 Human Whole Blood Assay. It counts as cell-based. To be noted: LPS and IFNγ 100 ng/mL, overnight (18 h), kynurenine by LC/MS/MS. As for the experimental part:
IDO1 Human Whole Blood Assay
Compounds to be tested were serially diluted in ten 3-fold steps in DMSO starting from 10 mM. 3 μL of compound dilutions or DMSO alone were then dispensed from the dilution plate into a polypropylene 96-well assay plate containing 97 μL of RPMI medium using an Echo 555 acoustic liquid handler (Labcyte). LPS and IFNγ was prepared in RPMI medium to a 10× of final conc. (1000 ng/mL), final concentration is 100 ng/mL.
240 μL of blood was transferred to each of the wells of a v-bottom 96 well plate. 30 μL of compound was transferred from intermediate dilution plate, and incubated for 15 min. 30 μL from stimulants was then transferred to blood and mixed thoroughly. Plate was covered with breathable membrane and incubated at 37° C. for overnight (18 h).
On day 2, isotope labeled standard solutions of kynurenine and tryptophan was made in water at 10× concentration and 30 μL was added to the blood at 3 μM final concentration. The assay plates were centrifuged at 300×G for 10 min with no brake to separate plasma from red blood cells. 60 μL of plasma samples was removed without disturbing red blood cells. Plasma was diluted with RPMI in 1:1 ratio and proteins were precipitated out with two volumes of Acetonitrile. The plates were centrifuged at 4000×G for 60 min. 20 μL of supernatant was carefully transferred to a 384 well plate containing 40 μL of 0.1% formic acid in water and analyzed by LC/MS/MS.
LC/MS/MS analyses were performed using Thermo Fisher's LX4-TSQ Quantum Ultra system. This system consists of four Agilent binary high-performance liquid chromatography (HPLC) pumps and a TSQ Quantum Ultra triple quadrupole MS/MS instrument. For each sample, 5 μL were injected onto an Atlantis T3 column (2.1 mm×150 mm, 3 μm particle size) from Waters. The mobile phase gradient pumped at 0.8 mL/min was used to elute the analytes from the column at 25° C. The elution started at 0% B increasing linearly to 25% B at 6.5 min, holding at 25% for 1 min, re-equilibrating to 10 min. Mobile phase A consisted of 0.1% formic acid in water. Mobile phase B consisted of 0.1% of formic acid in acetonitrile. Data were acquired in positive mode using a HESI interface. The operational parameters for the TSQ Quantum Ultra instrument were a spray voltage of 4000 V, capillary temperature of 380° C., vaporizer temperature 400° C., shealth gas 60 arbitrary units, Aux gas 20 arbitrary units, tube lens 85 and collision gas 1.2 mTorr. SRM chromatograms of kynurenine (Q1: 209.2>Q3:94.0) and internal standard (Q1: 215.3>Q3:98.2) were collected for 90 sec. The peak area was integrated by Xcalibur Quan software. The ratios between the kynurenine generated in the reaction and 2D6-Kynurenine spiked-in internal standard were used to generate percentage inhibition and IC50 values. Compounds were titrated and IC50's were calculated by 4 parameter sigmoidal curve fitting formula.

Experiment [2] has as its target T1, IDO1. The experiment in a line: IDO1 Cellular Assay in HeLa Cells Stimulated with IFNγ. It counts as cell-based. More on the design: endogenous in cells; host or cells: HeLa cells stimulated with IFNγ. The settings on record: HeLa cells stimulated with IFNγ 100 ng/mL, 300 uM L-tryptophan, about 48 hours, fluorescence readout; read-out: IDO1 HELA Cell Assay, IC50. As for the experimental part:
Biological Assays IDO1 Cellular Assay in HeLa Cells Stimulated with IFNγ HeLa cells were cultured in complete HeLa culture medium (90% EMEM, 10% heat-inactivated fetal bovine serum) and expanded to about 1×10^9 cells. The cells were then collected and frozen down at 1×10^7 cells/vial in 1 mL frozen medium (90% complete HeLa culture medium, 10% DMSO). Compounds to be tested were serially diluted in ten 3-fold steps in DMSO starting from 10 mM DMSO stocks in Echo low volume plate(s). Compound dilutions or DMSO alone were then dispensed from the dilution plate(s) into Greiner black 384-well assay plate(s) (catalog #781086, 50 nL/well) using an Echo 550 acoustic liquid handler (Labcyte). Frozen HeLa cells were thawed and transferred into HeLa assay medium (99% complete HeLa culture medium, 1% Pen/Strep) with 20 mL medium/vial of cells. The cells were spun down at 250 g in a table top centrifuge for 5 min and suspended in same volume of HeLa assay medium. The cells were then counted and adjusted to a density of 2×10^5 cells/mL in HeLa assay medium. Sterile L-tryptophan were added to the cells with final concentration of 300 uM L-tryptophan. A small aliquot (2 mL/plate) of HeLa cells were set aside and were not treated with IFNγ, to serve as the Max-E control. The rest of HeLa cells were added with sterile IFNγ (Cat #285-IF, R & D systems) with a final concentration of 100 ng/mL. HeLa cells with and without IFNγ were dispensed to the respective wells of 384-well assay plates containing the compounds. The plates were incubated for about 48 hours at a 37° C., 5% CO2 incubator. Afterwards, 12 μL of 0.5 M methyl isonipecotate in dimethyl sulfoxide were added into each well and the plates were sealed and incubated at 37° C. without CO2 overnight. The plates were centrifuged for 1 min at 200×g. The resulting fluorescence was measured in a Spectramax plate reader (Molecular Devices) with a 400 nm excitation filter and a 510 nm emission filter. The fluorescence intensity of each well was corrected for the background observed in wells with non-IFNγ-treated cells and was expressed as a fraction of the intensity observed in wells of IFNγ-treated cells and DMSO only. Potencies were calculated by […] least squares fit to the four parameter logistic IC50 equation.

As a reminder, the IC50 is the concentration that inhibits the measured activity by half.

T1 sequence (P14902 whole entry): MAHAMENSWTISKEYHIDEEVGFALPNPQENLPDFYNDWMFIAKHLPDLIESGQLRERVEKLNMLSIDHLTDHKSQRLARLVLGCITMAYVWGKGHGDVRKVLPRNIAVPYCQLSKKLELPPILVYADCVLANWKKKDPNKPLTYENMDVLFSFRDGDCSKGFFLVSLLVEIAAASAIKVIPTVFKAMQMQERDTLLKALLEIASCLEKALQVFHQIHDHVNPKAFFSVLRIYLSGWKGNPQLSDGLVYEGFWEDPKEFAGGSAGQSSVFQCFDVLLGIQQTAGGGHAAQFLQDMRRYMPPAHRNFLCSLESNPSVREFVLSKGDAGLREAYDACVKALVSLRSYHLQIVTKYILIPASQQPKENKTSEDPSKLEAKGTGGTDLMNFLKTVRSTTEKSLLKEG

For the compound “4-fluoro-N-(2-((6aS,7aR)-5-(2-methylpyrimidin-4-yl)-6,6a,7,7a-tetrahydro-5H-cyclopropa[c][1,5]naphthyridin-2-yl)propan-2-yl)benzamide [Example 30]”, the IC50 in experiment [1] amounted to 126 nM; in experiment [2], 6.6 nM.

On to `O=C(C1CC1)N1CC2CC2c2cc(C3(C(=O)Nc4ccc(F)cc4)CCC3)ccc21` (single isomer, unassigned) [Example 4, 1-(3-(cyclopropanecarbonyl)-1a,2,3,7b-tetrahydro-1H-cyclopropa[c]quinolin-6-yl)-N-(4-fluorophenyl)cyclobutanecarboxamide], for which the results for the IC50 in experiment [1] and in experiment [2] were 37 nM and 2.92 nM, respectively.

Take `O=C(NC1(c2ccc3c(n2)[C@@H]2C[C@@H]2CN3C(=O)OC2CC2)CC1)c1ccc(F)cc1` (single isomer, unassigned) [Example 21]: the IC50 turned out to be 946 nM in experiment [1] and 6.03 nM in experiment [2].

In the case of `CC(C)(NC(=O)c1ccc(F)cc1)c1ccc2c(n1)C1CC1CN2C(=O)OC1CC1` (single isomer, unassigned) [Example 32, cyclopropyl 2-(2-(4-fluorobenzamido)propan-2-yl)-6,6a,7,7a-tetrahydro-5H-cyclopropa[c][1,5]naphthyridine-5-carboxylate], the IC50 is 778 nM in experiment [1] and 7.56 nM in experiment [2].

Regarding `Cc1nccc(N2C[C@@H]3C[C@@H]3c3nc([C@@]4(NC(=O)c5ccc(F)cc5)C[C@H]4C)ccc32)n1` [Example 41, 4-fluoro-N-((1R,2R)-2-methyl-1-((6aR,7aS)-5-(2-methyl-pyrimidin-4-yl)-6,6a,7,7a-tetra-hydro-5H-cyclopropa[c][1,5]-naphthyridin-2-yl)cyclopropyl)-benzamide], the IC50 in experiment [2] was 2.36 nM.

For `Cc1nccc(N2C[C@@H]3C[C@@H]3c3nc([C@]4(NC(=O)c5ccc(F)cc5)C[C@@H]4C)ccc32)n1` [Example 42, 4-fluoro-N-((1S,2S)-2-methyl-1-((6aR,7aS)-5-(2-methyl-pyrimidin-4-yl)-6,6a,7,7a-tetra-hydro-5H-cyclopropa[c][1,5]-naphthyridin-2-yl)cyclopropyl)-benzamide], the IC50 in experiment [2] worked out at 3.17 nM.

Consider `Cc1nccc(N2C[C@H]3C[C@H]3c3nc([C@@]4(NC(=O)c5ccc(F)cc5)C[C@H]4C)ccc32)n1` [Example 43, 4-fluoro-N-((1R,2R)-2-methyl-1-((6aS,7aR)-5-(2-methyl-pyrimidin-4-yl)-6,6a,7,7a-tetra-hydro-5H-cyclopropa[c][1,5]-naphthyridin-2-yl)cyclopropyl)-benzamide], for which the IC50 in experiment [2] is 3.27 nM.

Regarding `Cc1nccc(N2C[C@H]3C[C@H]3c3nc([C@]4(NC(=O)c5ccc(F)cc5)C[C@H]4C)ccc32)n1` [Example 44, 4-fluoro-N-((1S,2R)-2-methyl-1-((6aS,7aR)-5-(2-methyl-pyrimidin-4-yl)-6,6a,7,7a-tetra-hydro-5H-cyclopropa[c][1,5]-naphthyridin-2-yl)cyclopropyl)-benzamide], in experiment [2], the IC50 amounted to 4.34 nM.

In the case of `Cc1nccc(N2C[C@H]3C[C@H]3c3nc([C@@]4(NC(=O)c5ccc(F)cc5)C[C@@H]4C)ccc32)n1` [Example 45, 4-fluoro-N-((1R,2S)-2-methyl-1-((6aS,7aR)-5-(2-methyl-pyrimidin-4-yl)-6,6a,7,7a-tetra-hydro-5H-cyclopropa[c][1,5]-naphthyridin-2-yl)cyclopropyl)-benzamide], the IC50 in experiment [2] was determined as 3.39 nM.

As to `Cc1nccc(N2C[C@H]3C[C@H]3c3nc([C@]4(NC(=O)c5ccc(F)cc5)C[C@@H]4C)ccc32)n1` [Example 46, 4-fluoro-N-((1S,2S)-2-methyl-1-((6aS,7aR)-5-(2-methyl-pyrimidin-4-yl)-6,6a,7,7a-tetra-hydro-5H-cyclopropa[c][1,5]-naphthyridin-2-yl)cyclopropyl)-benzamide], the IC50 in experiment [2] is 24.4 nM.

For the compound `Cc1nccc(N2c3ccc(C4(NC(=O)c5ccc(F)cc5)CC4)nc3C3CC2C3C)n1` (stereo not shown) [Example 48, 4-fluoro-N-(1-(3-methyl-1-(2-methylpyrimidin-4-yl)-1,2,3,4-tetrahydro-2,4-methano-1,5-naphthyridin-6-yl)cyclopropyl)benzamide], the IC50 in experiment [2] came out at 76.3 nM.

Consider `O=C(NC1(c2ccc3c(n2)C2CC(C2)N3C(=O)OCc2ccccc2)CC1)c1ccc(F)cc1` [Example 49, benzyl 6-(1-(4-fluorobenzamido)cyclopropyl)-3,4-dihydro-2,4-methano-1,5-naphthyridine-1(2H)-carboxylate], for which, in experiment [2], the IC50 was found to be 20.4 nM.

On to `O=C(NC1(c2ccc3c(n2)C2CC(C2)N3C(=O)OC2CC2)CC1)c1ccc(F)cc1` [Example 50, cyclopropyl 6-(1-(4-fluorobenzamido)cyclopropyl)-3,4-dihydro-2,4-methano-1,5-naphthyridine-1(2H)-carboxylate], for which the IC50 in experiment [2] is 5.76 nM.

In the case of `Cc1nccc(N2c3ccc(C4(NC(=O)c5ccc(F)cc5)CC4)nc3C3CC2C3)n1` [Example 51, 4-fluoro-N-(1-(1-(2-methylpyrimidin-4-yl)-1,2,3,4-tetrahydro-2,4-methano-1,5-naphthyridin-6-yl)cyclopropyl)benzamide], the IC50 in experiment [2] is 8.08 nM.

As for `CC(C)(C)OC(=O)N1C[C@@H]2C[C@@H]2c2nc(C3(NC(=O)c4ccc(F)cc4)CC3)ccc21` [Example 52, tert-butyl (6aR,7aS)-2-(1-(4-fluorobenzamido)cyclopropyl)-6,6a,7,7a-tetrahydro-5H-cyclo-propa[c][1,5]naphthyridine-5-carboxylate], the IC50 in experiment [2] amounted to 96.6 nM.

`CC(C)(C)OC(=O)N1C[C@H]2C[C@H]2c2nc(C3(NC(=O)c4ccc(F)cc4)CC3)ccc21` [Example 53, tert-butyl (6aS,7aR)-2-(1-(4-fluorobenzamido)cyclopropyl)-6,6a,7,7a-tetrahydro-5H-cyclo-propa[c][1,5]naphthyridine-5-carboxylate]: the IC50 in experiment [2] amounted to 4.62 nM.

Take `CC(C)(NC(=O)c1ccc(F)cc1)c1ccc2c(n1)C1CC1CN2` (stereo not shown) [Example 54, 4-fluoro-N-(2-(6,6a,7,7a-tetra-hydro-5H-cyclopropa[c][1,5]-naphthyridin-2-yl)propan-2-yl)-benzamide]: the IC50 in experiment [2] came out at 4900 nM.

Consider `CC(C)(C)OC(=O)N1CC2CC2c2nc(C(C)(C)NC(=O)c3ccc(F)cc3)ccc21` (stereo not shown) [Example 55, tert-butyl 2-(2-(4-fluorobenz-amido)propan-2-yl)-6,6a,7,7a-tetrahydro-5H-cyclopropa[c]-[1,5]naphthyridine-5-carboxylate], for which the IC50 in experiment [2] came out at 16.6 nM.
